Consider 21 compounds from patent US11420958B2, “Aryl and heteroaryl substituted indole compounds” (BRISTOL-MYERS SQUIBB COMPANY, priority 2017, dated 2022).

Broadly, the IC50 is the midpoint of a concentration-inhibition curve. A higher IC50 goes with weaker potency in that assay.

What all share (assay type): cell-based
In one assay the target is human TLR7 (Homo sapiens (Human), UniProt Q9NYK1). Description: TLR7 inhibition reporter assay (HEK-Blue, SEAP). Conditions: HEK-Blue cells overexpressing human TLR7, gardiquimod 7.5 μM stimulation. The procedure: (§1) TLR7/8/9 Inhibition Reporter Assays
Sequence of human TLR7 (Q9NYK1 27-1049): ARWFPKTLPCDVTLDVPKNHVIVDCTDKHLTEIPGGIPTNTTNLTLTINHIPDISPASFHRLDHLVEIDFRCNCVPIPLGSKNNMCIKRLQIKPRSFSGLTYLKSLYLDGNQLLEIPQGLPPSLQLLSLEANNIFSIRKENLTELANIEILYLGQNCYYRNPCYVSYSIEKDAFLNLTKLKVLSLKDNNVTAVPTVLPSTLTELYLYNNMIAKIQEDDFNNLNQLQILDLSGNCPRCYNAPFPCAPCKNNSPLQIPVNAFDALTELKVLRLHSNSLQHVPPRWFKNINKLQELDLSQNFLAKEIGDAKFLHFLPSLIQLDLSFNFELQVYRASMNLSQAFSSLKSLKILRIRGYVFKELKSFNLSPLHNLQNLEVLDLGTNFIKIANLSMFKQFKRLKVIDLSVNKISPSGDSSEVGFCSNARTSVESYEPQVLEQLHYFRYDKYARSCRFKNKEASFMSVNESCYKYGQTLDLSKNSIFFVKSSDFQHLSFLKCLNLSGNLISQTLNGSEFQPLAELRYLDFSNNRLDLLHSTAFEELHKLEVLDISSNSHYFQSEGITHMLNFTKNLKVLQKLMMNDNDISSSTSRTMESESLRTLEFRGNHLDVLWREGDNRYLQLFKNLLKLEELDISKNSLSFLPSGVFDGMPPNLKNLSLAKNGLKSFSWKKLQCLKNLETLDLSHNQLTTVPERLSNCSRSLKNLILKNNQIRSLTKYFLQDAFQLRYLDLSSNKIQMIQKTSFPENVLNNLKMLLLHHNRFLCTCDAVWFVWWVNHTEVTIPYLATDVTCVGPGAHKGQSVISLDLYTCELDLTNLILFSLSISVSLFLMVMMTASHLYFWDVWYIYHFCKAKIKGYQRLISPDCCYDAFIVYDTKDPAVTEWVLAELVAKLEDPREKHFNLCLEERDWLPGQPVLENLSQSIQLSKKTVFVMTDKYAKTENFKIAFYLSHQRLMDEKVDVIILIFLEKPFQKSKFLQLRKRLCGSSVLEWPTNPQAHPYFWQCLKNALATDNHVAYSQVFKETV
(§2) HEK-Blue™-cells (Invivogen) overexpressing human TLR7, TLR8 or TLR9 receptors were used for screening inhibitors of these receptors using an inducible SEAP (secreted embryonic alkaline phosphatase) reporter gene under the control of the IFN-β minimal promoter fused to five NF-κc Band AP-1-binding sites. Briefly, cells are seeded into Greiner 384 well plates (15000 cells per well for TLR7, 20,000 for TLR8 and 25,000 for TLR9) and then treated with test compounds in DMSO to yield a final dose response concentration range of 0.05 nM-50 μM. After a 30 minute compound pre-treatment at room temperature, the cells are then stimulated with a TLR7 ligand (gardiquimod at a final concentration of 7.5 μM), TLR8 ligand (R848 at a final concentration of 15.9 μM) or TLR9 ligand (ODN2006 at final concentration of 5 nM) to activate NF-κB and AP-1 which induce the production of SEAP. After a 22 hour incubation at 37° C., 5% CO2, SEAP levels are determined with the addition of HEK-Bue™ Detection reagent (Invivogen), a cell culture medium that allows for detection of SEAP, according to manufacturer's specifications. The percent inhibition is determined as the % reduction in the HEK-Blue signal present in wells treated with agonist plus DMSO alone compared to wells treated with a known inhibitor.
(A reporter such as luciferase makes a cellular process visible.)

Another assay deals with human TLR9 (Homo sapiens (Human), UniProt Q9NR96). Description: TLR9 inhibition reporter assay (HEK-Blue, SEAP). Particulars: HEK-Blue cells overexpressing human TLR9, ODN2006 5 nM stimulation. The procedure:
as §1, §2

The target in another assay is human TLR8 (Homo sapiens (Human), UniProt Q9NR97). Description: TLR8 inhibition reporter assay (HEK-Blue, SEAP). Conditions: HEK-Blue cells overexpressing human TLR8, R848 15.9 μM stimulation. The procedure:
as §1, §2

Sequence of human TLR9 (Q9NR96 26-1032): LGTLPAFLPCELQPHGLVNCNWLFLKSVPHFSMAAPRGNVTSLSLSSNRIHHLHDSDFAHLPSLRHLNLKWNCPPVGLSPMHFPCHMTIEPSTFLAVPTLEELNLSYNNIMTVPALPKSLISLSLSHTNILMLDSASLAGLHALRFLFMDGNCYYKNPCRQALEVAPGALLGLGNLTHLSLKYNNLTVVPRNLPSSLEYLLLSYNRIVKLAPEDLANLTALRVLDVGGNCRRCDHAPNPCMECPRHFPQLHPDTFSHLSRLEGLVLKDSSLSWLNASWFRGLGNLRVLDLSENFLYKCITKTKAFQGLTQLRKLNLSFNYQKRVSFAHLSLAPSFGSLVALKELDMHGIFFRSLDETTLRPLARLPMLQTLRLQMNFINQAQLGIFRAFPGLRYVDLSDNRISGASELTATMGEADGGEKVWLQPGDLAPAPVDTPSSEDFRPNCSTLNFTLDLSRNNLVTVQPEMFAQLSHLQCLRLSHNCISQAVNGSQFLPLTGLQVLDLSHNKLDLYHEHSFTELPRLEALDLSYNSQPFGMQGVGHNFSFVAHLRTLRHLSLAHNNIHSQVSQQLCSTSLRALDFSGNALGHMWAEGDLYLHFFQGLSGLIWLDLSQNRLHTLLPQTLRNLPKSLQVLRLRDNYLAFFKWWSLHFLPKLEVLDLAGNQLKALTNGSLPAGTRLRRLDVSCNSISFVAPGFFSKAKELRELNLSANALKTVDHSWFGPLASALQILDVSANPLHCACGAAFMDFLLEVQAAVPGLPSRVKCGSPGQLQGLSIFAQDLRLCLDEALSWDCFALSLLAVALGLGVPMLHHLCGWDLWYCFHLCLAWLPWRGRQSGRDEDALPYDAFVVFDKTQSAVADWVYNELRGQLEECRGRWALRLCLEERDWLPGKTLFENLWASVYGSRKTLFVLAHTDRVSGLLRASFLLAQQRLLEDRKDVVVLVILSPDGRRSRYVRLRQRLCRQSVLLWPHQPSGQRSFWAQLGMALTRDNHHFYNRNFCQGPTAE
Sequence of human TLR8 (Q9NR97 27-1041): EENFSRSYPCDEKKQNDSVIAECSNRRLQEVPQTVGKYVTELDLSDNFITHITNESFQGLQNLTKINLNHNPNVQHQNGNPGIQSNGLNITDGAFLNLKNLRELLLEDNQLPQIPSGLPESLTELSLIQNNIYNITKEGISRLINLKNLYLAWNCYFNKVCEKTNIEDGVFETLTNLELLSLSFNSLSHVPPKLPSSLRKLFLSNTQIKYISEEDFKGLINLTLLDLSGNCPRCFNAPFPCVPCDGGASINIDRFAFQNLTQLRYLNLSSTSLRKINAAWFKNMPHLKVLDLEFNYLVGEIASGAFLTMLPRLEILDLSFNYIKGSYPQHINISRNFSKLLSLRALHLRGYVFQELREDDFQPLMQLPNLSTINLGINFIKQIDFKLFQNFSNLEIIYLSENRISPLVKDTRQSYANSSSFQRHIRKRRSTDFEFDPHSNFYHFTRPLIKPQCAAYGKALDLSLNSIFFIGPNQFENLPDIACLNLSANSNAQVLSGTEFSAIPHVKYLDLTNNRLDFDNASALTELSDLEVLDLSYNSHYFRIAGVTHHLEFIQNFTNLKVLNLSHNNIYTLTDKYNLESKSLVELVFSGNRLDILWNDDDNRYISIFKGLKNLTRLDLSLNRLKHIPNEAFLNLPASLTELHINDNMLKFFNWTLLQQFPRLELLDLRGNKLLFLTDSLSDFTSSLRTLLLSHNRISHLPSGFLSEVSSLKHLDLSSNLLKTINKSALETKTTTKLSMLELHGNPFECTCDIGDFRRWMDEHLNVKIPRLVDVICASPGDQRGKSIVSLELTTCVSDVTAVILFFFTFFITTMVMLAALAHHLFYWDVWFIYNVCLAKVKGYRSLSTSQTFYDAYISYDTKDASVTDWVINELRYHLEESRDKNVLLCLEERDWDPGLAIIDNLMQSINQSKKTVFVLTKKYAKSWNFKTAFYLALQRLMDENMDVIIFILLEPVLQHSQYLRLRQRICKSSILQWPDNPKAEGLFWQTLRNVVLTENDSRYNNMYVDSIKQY

Turning to `CNCC(=O)Nc1cnc(-c2ccc3[nH]c(-c4cc(C)nc(C)c4)c(C(C)C)c3c2)cn1` [Example 356, N-(5-(2-(2,6-dimethylpyridin-4-yl)-3-isopropyl-1H-indol-5-yl)pyrazin-2-yl)-2-(methylamino)acetamide], the concentration for half-maximal inhibition (IC50) worked out at 10 nM on human TLR7, 952 nM against human TLR9 and 4.6 nM on human TLR8.
Regarding `COc1ccc(-c2[nH]c3ccc(-c4nnc(C5CCN(C(C)C)CC5)o4)cc3c2C(C)C)cc1OC` [Example 4, 2-(3,4-dimethoxyphenyl)-3-(propan-2-yl)-5-{5-[1-(propan-2-yl)piperidin-4-yl]-1,3,4-oxadiazol-2-yl}-1H-indole], the results for the IC50 at human TLR7, at human TLR9 and at human TLR8 were 78 nM, 979 nM and 9 nM, respectively.
On the same counts, the results for `Cc1cc(-c2[nH]c3ccc(-c4ccnc(C5CCN(C(C)C)CC5)c4)cc3c2C(C)C)ccn1` [Example 272, 3-isopropyl-5-(2-(1-isopropylpiperidin-4-yl)pyridin-4-yl)-2-(2-methylpyridin-4-yl)-1H-indole] are 24 nM, 380 nM and 9 nM.
In the case of `Cc1cc(-c2[nH]c3ccc(-c4ccc(NC(=O)C5CC(=O)N(C)C5)nc4)cc3c2C(C)C)ccn1` (stereo not drawn) [Example 332, N-(5-(3-isopropyl-2-(2-methylpyridin-4-yl)-1H-indol-5-yl)pyridin-2-yl)-1-methyl-5-oxopyrrolidine-3-carboxamide], the IC50 worked out at 14 nM against human TLR7 and 1.9 nM on human TLR8.
On to `Cc1cc(-c2[nH]c3ccc(-c4ccc(N5CCN(C(C)C)CC5)nc4)cc3c2C(C)C)ccn1` [Example 302, 3-isopropyl-5-(6-(4-isopropylpiperazin-1-yl)pyridin-3-yl)-2-(2-methylpyridin-4-yl)-1H-indole], for which the IC50 at human TLR9 is 2320 nM; against human TLR8, 28 nM.
In the case of `COc1ccc(-c2[nH]c3ccc(-c4cnc(N5CCN(CC(C)C)CC5)n4C)cc3c2C(C)C)cc1OC` [Example 433, 2-(3,4-dimethoxyphenyl)-5-(2-(4-isobutylpiperazin-1-yl)-1-methyl-1H-imidazol-5-yl)-3-isopropyl-1H-indole], the IC50 against human TLR7 is 145 nM; against human TLR9, 2110 nM.
For the compound `COc1ccc(-c2[nH]c3ccc(-c4ccc(N5CCN(CC(C)C)CC5)nc4)cc3c2C(C)C)cc1OC` [Example 391, 2-(3,4-dimethoxyphenyl)-5-(6-(4-isobutylpiperazin-1-yl)pyridin-3-yl)-3-isopropyl-1H-indole], the half-inhibitory concentration (IC50) was 4360 nM against human TLR9 and 73 nM on human TLR8.
Consider `CCc1c(-c2ccc(OC)c(OC)c2)[nH]c2ccc(-c3cccc(CN4CCN(C)CC4)c3)cc12` [Example 368, 2-(3,4-dimethoxyphenyl)-3-ethyl-5-(3-((4-methylpiperazin-1-yl)methyl)phenyl)-1H-indole], for which the 50% inhibitory concentration (IC50) at human TLR7 stood at 2530 nM; on human TLR8, 230 nM.
On the same counts, the results for `COc1ccc(-c2[nH]c3ccc(-c4cccc(C(=O)N5CCN(C(=O)C6CCCO6)CC5)c4)cc3c2CC(F)(F)F)cc1OC` (stereo not drawn) [Example 33, (4-(3-(2-(3,4-dimethoxyphenyl)-3-(2,2,2-trifluoroethyl)-1H-indol-5-yl)benzoyl)piperazin-1-yl)(tetrahydrofuran-2-yl)methanone] are 1330 nM and 53 nM.
Regarding `COc1ccc(-c2[nH]c3ccc(-c4ccnc(N5CCN(CCC(C)O)CC5)c4)cc3c2C(C)C)cc1OC` (stereo not drawn) [Example 425, 4-(4-(4-(2-(3,4-dimethoxyphenyl)-3-isopropyl-1H-indol-5-yl)pyridin-2-yl)piperazin-1-yl)butan-2-ol], the half-maximal inhibitory concentration (IC50) against human TLR7 was found to be 1490 nM; against human TLR9, 7070 nM.
On to `COc1ccc(-c2[nH]c3ccc(-c4cnc(Cl)n4C)cc3c2C(C)C)cc1OC` [Example 437, 5-(2-chloro-1-methyl-1H-imidazol-5-yl)-2-(3,4-dimethoxyphenyl)-3-isopropyl-1H-indole], for which the results for the IC50 at human TLR7 and against human TLR9 were 896 nM and 42100 nM, respectively.
`COc1ccc(-c2[nH]c3ccc(-c4ccc(-c5cncc6ccccc56)cc4)cc3c2C(C)C)cc1OC` [Example 407, 4-(4-(2-(3,4-dimethoxyphenyl)-3-isopropyl-1H-indol-5-yl)phenyl)isoquinoline]: the half-maximal inhibitory concentration (IC50) against human TLR9 is 290 nM; at human TLR8, over 50000 nM.
On to `COc1ccc(-c2[nH]c3ccc(-c4ccnc(N5CCN(CCC(F)(F)F)CC5)c4)cc3c2C(C)C)cc1OC` [Example 424, 2-(3,4-dimethoxyphenyl)-3-isopropyl-5-(2-(4-(3,3,3-trifluoropropyl)piperazin-1-yl)pyridin-4-yl)-1H-indole], for which the values for the IC50 against human TLR7 and against human TLR9 were 2590 nM and over 50000 nM, respectively.
On to `COc1ccc(-c2[nH]c3ccc(-c4ccnc(N5CCN(Cc6ccsc6)CC5)c4)cc3c2C(C)C)cc1OC` [Example 423, 2-(3,4-dimethoxyphenyl)-3-isopropyl-5-(2-(4-(thiophen-3-ylmethyl)piperazin-1-yl)pyridin-4-yl)-1H-indole], for which the figures for the IC50 against human TLR7 and against human TLR9 were 1400 nM and 8760 nM, respectively.
For `CC(C)c1c(-c2ccnc3[nH]ncc23)[nH]c2ccc(-c3ccc(C(C)N4CCOCC4)cc3)cc12` (stereo not drawn) [Example 372, 4-(1-(4-(3-isopropyl-2-(1H-pyrazolo[3,4-b]pyridin-4-yl)-1H-indol-5-yl)phenyl)ethyl)morpholine], the IC50 against human TLR7 was 250 nM; at human TLR8, 13 nM.
On the same counts, the results for `COc1ccc(-c2ccc3[nH]c(-c4ccnc5[nH]ncc45)c(C(C)C)c3c2)cn1` [Example 422, 4-(3-isopropyl-5-(6-methoxypyridin-3-yl)-1H-indol-2-yl)-1H-pyrazolo[3,4-b]pyridine] are 4100 nM and 662 nM.
For `CC(C)c1c(-c2ccc3nccn3c2)[nH]c2ccc(-c3nnc([C@@H]4CCCNC4)o3)cc12` [Example 244, (R)-2-(2-(imidazo[1,2-a]pyridin-6-yl)-3-isopropyl-1H-indol-5-yl)-5-(piperidin-3-yl)-1,3,4-oxadiazole], the values for the IC50 against human TLR7 and against human TLR8 were 153 nM and 422 nM, respectively.
For `Cc1cc(-c2[nH]c3ccc(-c4nc5c(s4)CCNC5)cc3c2C(C)C)cc(C)n1` [Example 310, 2-(2-(2,6-dimethylpyridin-4-yl)-3-isopropyl-1H-indol-5-yl)-4,5,6,7-tetrahydrothiazolo[4,5-c]pyridine], the concentration for half-maximal inhibition (IC50) at human TLR7 turned out to be 3.4 nM; on human TLR9, 647 nM.
On the same counts, the results for `COc1ccc(-c2[nH]c3ccc(-c4cnc(N5CCN(Cc6ccsc6)CC5)nc4)cc3c2C(C)C)cc1OC` [Example 429, 2-(3,4-dimethoxyphenyl)-3-isopropyl-5-(2-(4-(thiophen-3-ylmethyl)piperazin-1-yl)pyrimidin-5-yl)-1H-indole] are 1280 nM and over 50000 nM.
On the same counts, the results for `COc1ccc(-c2[nH]c3ccc(-c4cnc(N5CCN(Cc6cccn6C)CC5)nc4)cc3c2C(C)C)cc1OC` [Example 430, 2-(3,4-dimethoxyphenyl)-3-isopropyl-5-(2-(4-((1-methyl-1H-pyrrol-2-yl)methyl)piperazin-1-yl)pyrimidin-5-yl)-1H-indole] are 1340 nM and 11900 nM.
In the case of `Cc1cc(-c2[nH]c3ccc(-c4nc(C(=O)NC5CCN(C(C)C)CC5)co4)cc3c2C(C)C)cc(C)n1` [Example 249, 2-(2-(2,6-dimethylpyridin-4-yl)-3-isopropyl-1H-indol-5-yl)-N-(1-isopropylpiperidin-4-yl)oxazole-4-carboxamide], the figures for the half-inhibitory concentration (IC50) against human TLR7 and at human TLR8 were 27 nM and 7.5 nM, respectively.
